In ChEMBL document CHEMBL1201862, “PubChem BioAssay data set” (2004):
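Grown in 96-well plates, cells were treated for 48 hours with each compound at five concentrations. Insufficient inhibition: endpoint recorded as highest concentration tested. GI50 marks 50% less growth.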 Activity calls are given as the source filed them. No stated cut-off is given here; in the data, active = GI50 up to about 1.1 µM and inactive = higher.

How the values were obtained:
Test in all cases: NCI anticancer screen, dose series, 48 h
NCI-H522 = test system: NCI-H522
SNB-19 = test system: SNB-19
MCF7 = test system: MCF7
MOLT-4 = test system: MOLT-4
SR = test system: SR
UO-31 = test system: UO-31
HOP-92 = test system: HOP-92
NCI/ADR-RES = test system: NCI/ADR-RES
RPMI-8226 = test system: RPMI-8226
OVCAR-4 = test system: OVCAR-4
SF-295 = test system: SF-295
DU-145 = test system: DU-145
HOP-62 = test system: HOP-62
Hs-578T = test system: Hs-578T
BT-549 = test system: BT-549
SK-OV-3 = test system: SK-OV-3
HL-60 = test system: HL-60
A498 = test system: A498
Malme-3M = test system: Malme-3M
SNB-75 = test system: SNB-75

Measured: GI50

Nc1nc(-c2cccnc2)cc(-c2cc(-c3cccnc3)nc(N)n2)n1
inactive: NCI-H522 > 100 µM | SNB-19 > 100 µM | MCF7 > 100 µM | MOLT-4 > 100 µM | SR 55.8 µM | UO-31 > 100 µM | HOP-92 > 100 µM | NCI/ADR-RES > 100 µM | RPMI-8226 > 100 µM | OVCAR-4 > 100 µM | SF-295 > 100 µM | DU-145 > 100 µM | HOP-62 > 100 µM | Hs-578T > 100 µM | BT-549 > 100 µM | SK-OV-3 > 100 µM | HL-60 > 100 µM | A498 > 100 µM | Malme-3M > 100 µM

COC(=O)C(I(OS(=O)(=O)c1ccc(C)cc1)c1ccccc1)=P(c1ccccc1)(c1ccccc1)c1ccccc1
inactive: NCI-H522 13 µM | SNB-19 33.9 µM | MCF7 30.3 µM | MOLT-4 20.7 µM | SR 19.4 µM | UO-31 22.2 µM | HOP-92 14.7 µM | NCI/ADR-RES 64 µM | RPMI-8226 5.04 µM | OVCAR-4 13.7 µM | SF-295 30.1 µM | DU-145 15.9 µM | HOP-62 19.3 µM | Hs-578T 24.7 µM | BT-549 21.2 µM | SK-OV-3 25.1 µM | HL-60 15.1 µM | A498 18.2 µM | Malme-3M 7.94 µM

O=[N+]([O-])c1ccc2sc(/C=N/c3ccc(O)cc3)cc2c1
inactive: NCI-H522 27.7 µM | SNB-75 25.8 µM | SNB-19 34 µM | MCF7 20.1 µM | MOLT-4 15.8 µM | SR 29.1 µM | UO-31 41 µM | HOP-92 32.4 µM | NCI/ADR-RES 28.8 µM | RPMI-8226 22.3 µM | SF-295 42.3 µM | DU-145 32.8 µM | HOP-62 34.7 µM | Hs-578T 18.9 µM | BT-549 22.3 µM | SK-OV-3 84.7 µM | HL-60 18.9 µM | A498 72.8 µM | Malme-3M 28.3 µM

CCC(CCC(C)C1CCC2C3CC=C4CC(OC5OC(CO)C(O)C(O)C5O)CCC4(C)C3CCC12C)C(C)C (stereo not drawn)
inactive: NCI-H522 > 100 µM | SNB-19 > 100 µM | MCF7 > 100 µM | MOLT-4 > 100 µM | SR 26.4 µM | UO-31 > 100 µM | HOP-92 > 100 µM | NCI/ADR-RES > 100 µM | RPMI-8226 > 100 µM | OVCAR-4 > 100 µM | SF-295 98.9 µM | DU-145 > 100 µM | HOP-62 > 100 µM | Hs-578T > 100 µM | BT-549 > 100 µM | SK-OV-3 > 100 µM | HL-60 > 100 µM | A498 > 100 µM | Malme-3M > 100 µM

CCOC(OCC)C(CCc1ccccc1)c1c(N)nc(N)[nH]c1=O (stereo not drawn)
inactive: SNB-75 > 100 µM | SNB-19 > 100 µM | MCF7 33.1 µM | MOLT-4 34.3 µM | SR 32.4 µM | UO-31 34.8 µM | HOP-92 29.6 µM | NCI/ADR-RES > 100 µM | RPMI-8226 38.6 µM | OVCAR-4 46.1 µM | SF-295 53.1 µM | DU-145 83.9 µM | HOP-62 > 100 µM | Hs-578T > 100 µM | BT-549 86.9 µM | SK-OV-3 25.9 µM | HL-60 25.2 µM | A498 > 100 µM | Malme-3M > 100 µM

CSc1ncc2c(n1)-c1ccccc1OC2N1CCCCC1 (stereo not drawn)
inactive: NCI-H522 18.9 µM | SNB-75 66.5 µM | SNB-19 68.7 µM | MCF7 23.8 µM | MOLT-4 20.2 µM | SR 18 µM | UO-31 32.5 µM | HOP-92 25 µM | NCI/ADR-RES 40.6 µM | RPMI-8226 24.4 µM | OVCAR-4 28.8 µM | SF-295 38.5 µM | DU-145 34.4 µM | Hs-578T 26.9 µM | BT-549 24.3 µM | SK-OV-3 > 100 µM | HL-60 19.7 µM | A498 22.2 µM
